Here are results for 2 molecules from US20020094524A1, “Compositions and methods for inhibiting HIV infection” (priority 2000, published 2002).

The test system of one assay is HIV Bal strain. The assay is described as follows: HIV-induced syncytia formation in MDM. The assay is classed as cell-based. To be noted: 10^−7M; 12 days after infection (FIG. 2). The procedure: Syncytia formation: To study the effect of neuropeptide antagonists on HIV-induced syncytia formation in MDM, 7-day-cultured macrophages were incubated in the presence or absence of CP-96,345 (10^−7M) for 2 h and then infected with HIV Bal strain. MDM which were neither incubated with CP-96,345 nor infected with HIV were used as a cell culture control. The morphology of HIV-induced syncytia formation was observed and photographed by a light microscopy (×400) 12 days after HIV infection.

The next assay has as its system HIV gag mRNA. The assay is described as follows: HIV gag mRNA by RT-PCR / real time RT-PCR in infected MDM. The class given is cell-based. As to the method:
HIV Infection: After 2 h incubation with or without the reagents described above, the cells were infected with equal amounts of cell-free HIV based on p24 antigen content (20 ng/10^6 cells) overnight, and then washed to remove unbound virus. Fresh media containing SP and/or CP-96,345 or anti-SP antibody were added to the MDM as described above. The culture media and the reagents were replaced twice weekly. The culture supernatants were harvested for HIV reverse transcriptase (RT) activity determinations. After HIV infection, the MDM were incubated for 8 to 12 days. At the termination of the experiments, cellular RNA was extracted for assessment of HIV gag gene expression using RT-PCR or real time RT-PCR assays.
(§1) Total RNA was isolated from human peripheral blood MDM (10^6 cells) using Tri-Reagent (Molecular Research Center, Cincinnati, Ohio) as we previously reported (16).
Reverse transcription: Total RNA (1 μg) was reverse transcribed using Reverse Transcription System (Promega, Madison, Wis.) with the specific primers (antisense) for HIV gag (5′-[…]-[…]-3′; SEQ ID NO: 1) (27) or CCR5 (5′-[…]-3′; SEQ ID NO: 2) (32) for 1 h at 42° C. RT reactions was terminated by incubating the reaction mixture at 99° C. for 5 min and then kept at 4° C. The resulting cDNA was used as a template for PCR amplification or real time PCR quantification. […]
On the technique in general: Quantitative PCR measures a nucleic acid by following its amplification.

The next assay has as its system CCR5 mRNA. The assay is described as follows: CCR5 mRNA expression in MDM (RT-PCR). The class given is cell-based, human. To be noted: for relative CCR5 mRNA level (real-time RT-PCR): CP-96,345 10^−7 to 10^−6 M or R-113281 10^−8 to 10^−6 M, 4 hours (FIG. 15A). As to the method: as §1
Reverse transcription: Total RNA (1 μg) was reverse transcribed using Reverse Transcription System (Promega, Madison, Wis.) with the specific primers (antisense) for HIV gag (5′-[…]-[…]-3′; SEQ ID NO: 1) (27) or CCR5 (5′-[…]-3′; SEQ ID NO: 2) (32) for 1 h at 42° C. RT reactions was terminated by incubating the reaction mixture at 99° C. for 5 min and then kept at 4° C. The resulting cDNA was used as a template for PCR amplification or real time PCR quantification.
Polymerase chain reaction (PCR) analysis: PCR amplification of CCR5 and HIV gag cDNA was performed with one tenth of the cDNA for 35 cycles (CCR5) (32) or 40 cycles (gag) (27) using AmpliTaq Gold (Perkin Elmer-Cetus, Foster City, Calif.) in a GeneAmp PCR System 2400 (Perkin Elmer-Cetus). β-Actin was used as a control to monitor the amount and integrity of RNA in each sample (Clontech, Palo Alto, Calif.). Real time PCR was performed with one tenth of cDNA using ABI Prism 7700 Sequence Detection System (Perkin Elmer). The reaction mixture contained 0.25 mM of dNTPs, AmpliTaq Gold (1.5 U), 5 mM of MgCl2, 50 pmole of each of the two primers (SK38: 5′-[…]-3′ (SEQ ID NO: 3); SK39: 5+-[…]-3′; SEQ ID NO: 4), 20 pmole of the molecular beacon probe (SK19: 5′-[…]-3′; SEQ ID NO: 5) labeled with FAM (a fluorophore) at its 5′ end and DABCYL (a quencher) at the 3′ end. The cycle conditions were 95° C. 10 min followed by 40 cycles of 95° C. 15 sec and 60° C. 1 min. The known amounts of HIV DNA isolated from ACH-2 cells were used as standard controls. All standards and samples were run in duplicates. HIV gag, CCR5, β-Actin primer pairs and the probe (SK19) were synthesized by Integrated DNA Technologies, Inc. (Coralville, Iowa).

A further assay has as its system TNF-α. The assay is described as follows: LPS-stimulated TNF-α production in MDM (ELISA). The class given is cell-based, human. To be noted: 10^−9 to 10^−7M; LPS 1 ng/ml; 24 h; concentration-dependent (FIG. 11). As to the method:
(§2) In order to determine the role of CP-96,345 in the regulation of cytokine secretion, 7-day-cultured MDM were incubated with or without CP-96,345 (10^−9 to 10^−7M) and/or LPS (1 ng/ml) for 24 h. The culture supernatants were collected to determine TNF-α and IL-6 levels by ELISA. The ELISA kits were purchased from Endogen, Inc. (Woburn, Mass.).
For orientation: In an ELISA, binding on a coated surface is turned into a signal by an enzyme label.

The subject of a further assay is IL-6. As to the kind of experiment: IL-6 production in LPS-treated MDM (ELISA). The following applies: 10^−9 to 10^−7M; LPS 1 ng/ml; 24 h (FIG. 11). The assay is classed as cell-based, human. The procedure: as §2
For a further assay, the system named is SP mRNA. The assay is described as follows: SP mRNA expression in MDM (real-time RT-PCR). The assay is classed as cell-based, human. The following applies: 4 hours; indicated concentration (FIG. 17). The procedure:
FIG. 17. A graph showing the effect of CP-96,345 on SP mRNA expression in MDM. The MDM were incubated with (+) or without (−) the NK-1R antagonist at the indicated concentration for 4 hours. The SP mRNA levels were determined by a real-time RT-PCR. The SP mRNA levels in the CP-96,345 treated MDM are expressed as a percentage of that in untreated MDM which are defined as 100%.
The effect of CP-96,345 on SP mRNA expression in MDM was also determined. The MDM were incubated with (+) or without (−) the NK-1R antagonist at the indicated concentration for 4 hours. The SP mRNA levels were determined by a real-time RT-PCR.

For `COc1ccccc1CN[C@H]1C2CCN(CC2)[C@H]1C(c1ccccc1)c1ccccc1` [CP-96,345, 2S, 3S)-cis-2-(diphenylmethyl)-N-[(2-methoxyphenyl)-methyl]-1-azabicyclo[[2.2.2]octan-3-amine], the “HIV-induced giant syncytia formation in MDM” value in the assay with HIV Bal strain was “failed to develop the giant syncytia”. In the assay with HIV gag mRNA (10^−11 to 10^−7 M, 12 days after infection, concentration-dependent (FIG. 3 top panel)), the “HIV gag mRNA expression (RT-PCR)” value was “potently inhibited”. The “HIV gag gene mRNA expression (real time RT-PCR copy numbers)” value in the assay on HIV gag mRNA (all three concentrations tested, 12 days after infection (FIG. 3)) is reported as “significantly suppress”. The “CCR5 mRNA in MDM (RT-PCR)” value in the assay on CCR5 mRNA (10^−8 to 10^−6M, 3 h (FIG. 9)) is “down-regulated”. The “relative CCR5 mRNA level (real-time RT-PCR)” value in the assay on CCR5 mRNA is given as “significantly down-regulated”. Also, the “LPS-stimulated TNF-α production in MDM” value in the assay with TNF-α was “attenuated”. Also, in the assay with IL-6, the “IL-6 production in MDM” value is “not affected”. The “SP mRNA expression in MDM” value in the assay on SP mRNA is on record as “significantly inhibited”.
`COc1cc(C(=O)N2CCO[C@](CCN3CCC4(CC3)c3ccccc3C[S@+]4[O-])(c3ccc(Cl)c(Cl)c3)C2)cc(OC)c1OC.Cl` [R-113281]: the “relative CCR5 mRNA level (real-time RT-PCR)” value with CCR5 mRNA is reported as “significantly down-regulated”.
